Among the data in BindingDB's records for doi:10.1021/acsmedchemlett.7b00157 (Novartis Institutes For Biomedical Research, 2017) are IC50 values, retold here.

A short description of test [1]: Antagonist activity at DP2 receptor in human whole assessed as inhibition of DK-PGD2-induced eosinophils shape change preincubated for 5 mins followed by DK-PGD2 addition measured after 5 mins by flow cytometry.
Test [2] has as its target T1, Prostaglandin D2 receptor 2 (Homo sapiens, UniProt Q9Y5Y4).
T1 sequence (Q9Y5Y4 whole entry): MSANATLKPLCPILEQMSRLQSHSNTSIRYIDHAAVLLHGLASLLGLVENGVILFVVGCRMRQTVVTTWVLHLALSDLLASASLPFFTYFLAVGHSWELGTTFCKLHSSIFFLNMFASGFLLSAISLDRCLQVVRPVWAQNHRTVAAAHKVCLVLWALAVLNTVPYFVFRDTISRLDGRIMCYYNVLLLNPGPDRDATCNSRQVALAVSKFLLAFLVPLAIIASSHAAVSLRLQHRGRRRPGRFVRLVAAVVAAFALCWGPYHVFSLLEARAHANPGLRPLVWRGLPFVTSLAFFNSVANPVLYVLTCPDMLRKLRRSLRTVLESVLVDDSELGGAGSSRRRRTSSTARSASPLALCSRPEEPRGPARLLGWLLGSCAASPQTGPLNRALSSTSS
The test can be described thus: Antagonist activity at DP2 receptor in human whole assessed as inhibition of DK-PGD2-induced eosinophils shape change preincubated for 5 mins followed by DK-PGD2 addition measured after 5 mins by flow cytometry.

With `Cc1cc(S(C)(=O)=O)ccc1Cn1c(C)c(CC(=O)O)c2cccnc21`, the IC50 (as a rule, the concentration needed to halve the response being measured) in test [1] came out at 32 nM.
As for `CCS(=O)(=O)c1ccc(Cn2c(C)c(CC(=O)O)c3cccnc32)c(C(F)(F)F)c1`, the concentration for half-maximal inhibition (IC50) in test [1] turned out to be 4 nM.
Consider `CCS(=O)(=O)c1ccc(Cn2c(C)c(CC(=O)O)c3cccnc32)c(Cl)c1`, for which the IC50 in test [2] was determined as 7 nM.
As for `Cc1c(CC(=O)O)c2cccnc2n1Cc1ccc(S(C)(=O)=O)cc1Cl`, the IC50 in test [1] is 47 nM.
`Cc1c(CC(=O)O)c2ccccc2n1Cc1ccc(S(C)(=O)=O)cc1`: the IC50 in test [1] came to 188 nM.
Take `Cc1c(CC(=O)O)c2cccnc2n1Cc1ccc(S(C)(=O)=O)c(C(F)(F)F)c1`: the IC50 in test [1] was found to be 11 nM.
`Cc1c(CC(=O)O)c2cccnc2n1Cc1ccc(C(F)(F)F)cc1C(F)(F)F`: in test [1], the IC50 was 214 nM.
